Data from PubChem BioAssay AID1963986 (Molecular Pharmacology Branch, DTP, NCI, 2024).
One block for each compound: values may come before it.

Test system: 171881-019-R-J1-PDC tumor spheroid viability
Assay: Anticancer human tumor 171881-019-R-J1-PDC patient-derived invasive breast carcinoma cell line growth inhibition [PI3K]
Conditions: spheroids with HUVEC and MSC; for viability, T/C: stronger effect = lower value
From the text: Combinatorial screen of targeted agents with the PI3K inhibitors inavolisib, alpelisib, duvelisib, and copanlisib in multi-cell type tumor spheroids
A high-throughput screen of multi-cell type tumor spheroids was designed to identify active combinations of targeted small molecules and PI3K pathway inhibitors. Complex spheroids include a stromal component modeled by human endothelial cells (HUVEC) and fibroblasts modeled by human mesenchymal stem cells (MSCs). The concentration ranges selected for each drug and investigational agent were based upon clinically achievable concentrations if the clinical Cmax of the agent was known.
Compounds. The drugs and investigational agents: inavolisib (NSC800729), alpelisib (NSC765974), duvelisib (NSC772469), copanlisib (NSC816437), ipatasertib (NSC767898), afuresertib (NSC778305), talazoparib (NSC767125), sapanisertib (NSC764658), selumetinib (NSC741078), tovorafenib (DAY101, NSC766906), vemurafenib (NSC761431), ravoxertinib (NSC781343), sotorasib (NSC818433), MRTX1133 (NSC 836407), abemaciclib (NSC 768073), palbociclib (NSC758247), venetoclax (NSC 766270), SY5609 (NSC837396), enzalutamide (NSC755605), and darolutamide (NSC825331), were obtained from the National Cancer Institute (NCI) Developmental Therapeutics Program Chemical Repository. The FDA-approved anticancer drug set is available from the NCI Developmental Therapeutics Program. […] The stock solutions were prepared in dimethyl sulfoxide (DMSO, Sigma-Aldrich, St. Louis, MO, cat. D2650) at 800-fold the tested concentration and stored at -70 degrees C prior to their use. All drugs and investigational agents were tested over a range starting from a high concentration at or near the clinical Cmax and decreasing in half-log increments. If the clinical Cmax for an agent had not been determined, the highest concentration tested was 10 microM.
Cell Culture. All cells were maintained in an incubator at 37 degrees C and 5% CO2 with 95% humidity. The PDC lines were cultured according to standard operating procedures established by the NCI PDMR (https://pdmr.cancer.gov/sops/default.htm). All PDCs were thawed and cultured in Matrigel-coated flasks prepared with a working solution of 1X Ham's F-12 nutrient mix, without supplementation (Invitrogen, Waltham, MA, cat. 11765054), 100 U/mL penicillin-streptomycin (Invitrogen, cat. 15140122), and 2.5% Matrigel (Corning Inc., Corning, NY, cat. 354248) for the first three passages. The 354836-022-R-J1-PDC, 475296-252-R-J1-PDC, and 997726-040-R-J2-PDC lines were cultured in 6A media, which includes advanced DMEM/F-12 (Thermo Fisher Scientific, cat. 12634028), 10 mM HEPES (Thermo Fisher Scientific, cat. 15630080), 1X GlutaMAX supplement (Thermo Fisher Scientific, cat. 35050061), 0.1 mg/mL primocin (InvivoGen, San Diego, CA, cat. ant-pm-2), 10% defined fetal bovine serum, heat inactivated (HyClone Laboratories Inc., Logan, UT, cat. SH30070.03HI), 50% L-WRN conditioned media (ATCC, cat. CRL-3276), 1.25 mM N-Acetyl-L-cysteine (Sigma-Aldrich, cat. A9165), 10 mM nicotinamide (Sigma-Aldrich, cat. N0636), 1X B-27 supplement (Thermo Fisher Scientific, cat. 17504044), 1X N-2 supplement (Thermo Fisher Scientific, cat. 17502048), and 10 microM Y-27632 dihydrochloride (Tocris Bioscience, Bristol, United Kingdom, cat. 1254). The 624824-186-R-J2-PDC line was cultured in 6C/Colon 1B media, which includes all 6A media components plus 50 ng/mL human EGF recombinant protein (Thermo Fisher Scientific, cat. PHG0311). […]

[1] = curve of first compound, second compound 0.00316 µM
[2] = curve of first compound, second compound 0.01 µM
[3] = curve of first compound, second compound 0.0316 µM
[4] = curve of first compound, second compound 0.1 µM
[5] = curve of first compound, second compound 0.316 µM
[6] = curve of first compound, second compound 1 µM
[7] = second compound 0.00316 µM, first compound 0.0316 µM
[8] = second compound 0.00316 µM, first compound 0.1 µM
[9] = second compound 0.00316 µM, first compound 0.316 µM
[10] = second compound 0.00316 µM, first compound 1 µM
[11] = second compound 0.01 µM, first compound 0.0316 µM
[12] = second compound 0.01 µM, first compound 0.1 µM
[13] = second compound 0.01 µM, first compound 0.316 µM
[14] = second compound 0.01 µM, first compound 1 µM
[15] = second compound 0.0316 µM, first compound 0.0316 µM
[16] = second compound 0.0316 µM, first compound 0.1 µM
[17] = second compound 0.0316 µM, first compound 0.316 µM
[18] = second compound 0.0316 µM, first compound 1 µM
[19] = second compound 0.1 µM, first compound 0.0316 µM
[20] = second compound 0.1 µM, first compound 0.1 µM
[21] = second compound 0.1 µM, first compound 0.316 µM
[22] = second compound 0.1 µM, first compound 1 µM
[23] = second compound 0.316 µM, first compound 0.0316 µM
[24] = second compound 0.316 µM, first compound 0.1 µM
[25] = second compound 0.316 µM, first compound 0.316 µM
[26] = second compound 0.316 µM, first compound 1 µM
[27] = second compound 1 µM, first compound 0.0316 µM
[28] = second compound 1 µM, first compound 0.1 µM
[29] = second compound 1 µM, first compound 0.316 µM
[30] = second compound 1 µM, first compound 1 µM
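Further: spheroids exposed to compound for 7 days before viability read.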
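Wherever viability, T/C is given: 100% = DMSO vehicle-treated spheroids.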

IC50 [1]: 265 nM | IC50 [2]: 113 nM | IC50 [3]: < 31.6 nM | IC50 [4]: < 31.6 nM | IC50 [5]: < 31.6 nM | IC50 [6]: < 31.6 nM
SMILES: Cn1nccc1Nc1nccc(-c2ccn(C(CO)c3ccc(Cl)c(F)c3)c(=O)c2)n1 (stereo not given) + CC(Nc1ccc2c(c1)OCCn1cc(N3C(=O)OCC3C(F)F)nc1-2)C(N)=O
viability, T/C [7]: 92.5% | viability, T/C [8]: 67.2% | viability, T/C [9]: 46.7% | viability, T/C [10]: 33.7% | viability, T/C (second compound 0.00316 µM, first compound 3.16 µM): 22% | viability, T/C (second compound 0.00316 µM, first compound 10 µM): 19.2% | viability, T/C [11]: 69.6% | viability, T/C [12]: 53.9% | viability, T/C [13]: 30.6% | viability, T/C [14]: 27.4% | viability, T/C (second compound 0.01 µM, first compound 3.16 µM): 18.2% | viability, T/C (second compound 0.01 µM, first compound 10 µM): 15% | viability, T/C [15]: 47.4% | viability, T/C [16]: 37.9% | viability, T/C [17]: 23.1% | viability, T/C [18]: 17.1% | viability, T/C (second compound 0.0316 µM, first compound 3.16 µM): 11.8% | viability, T/C (second compound 0.0316 µM, first compound 10 µM): 9.67% | viability, T/C [19]: 33.5% | viability, T/C [20]: 23.3% | viability, T/C [21]: 15.9% | viability, T/C [22]: 9.87% | viability, T/C (second compound 0.1 µM, first compound 3.16 µM): 7.9% | viability, T/C (second compound 0.1 µM, first compound 10 µM): 5.46% | viability, T/C [23]: 21.6% | viability, T/C [24]: 16.9% | viability, T/C [25]: 10.6% | viability, T/C [26]: 6.63% | viability, T/C (second compound 0.316 µM, first compound 3.16 µM): 4.45% | viability, T/C (second compound 0.316 µM, first compound 10 µM): 2.82% | viability, T/C [27]: 18.3% | viability, T/C [28]: 13.9% | viability, T/C [29]: 7.66% | viability, T/C [30]: 4.72% | viability, T/C (second compound 1 µM, first compound 3.16 µM): 3.76% | viability, T/C (second compound 1 µM, first compound 10 µM): 2.26%

IC50 (curve of compound): > 10000 nM
SMILES: C=CC(=O)N1CCN(c2nc(=O)n(-c3c(C)ccnc3C(C)C)c3nc(-c4c(O)cccc4F)c(F)cc23)C(C)C1 (stereo not given)
viability, T/C (compound 0.0316 µM): 95.3% [middle of 4 runs] | viability, T/C (compound 0.1 µM): 84.4% [middle of 4 runs] | viability, T/C (compound 0.316 µM): 92.5% [middle of 4 runs] | viability, T/C (compound 1 µM): 94.6% [middle of 4 runs] | viability, T/C (compound 3.16 µM): 91.7% [middle of 4 runs] | viability, T/C (compound 10 µM): 56.1% [middle of 4 runs]

IC50 [1]: > 1000 nM | IC50 [2]: > 1000 nM | IC50 [3]: > 1000 nM | IC50 [4]: < 3.16 nM | IC50 [5]: < 3.16 nM | IC50 [6]: < 3.16 nM
SMILES: CCN1CCN(Cc2ccc(Nc3ncc(F)c(-c4cc(F)c5nc(C)n(C(C)C)c5c4)n3)nc2)CC1 + CC(Nc1ccc2c(c1)OCCn1cc(N3C(=O)OCC3C(F)F)nc1-2)C(N)=O
viability, T/C (second compound 0.00316 µM, first compound 0.00316 µM): 87% | viability, T/C (second compound 0.00316 µM, first compound 0.01 µM): 95.7% | viability, T/C [7]: 108% | viability, T/C [8]: 106% | viability, T/C [9]: 120% | viability, T/C [10]: 122% | viability, T/C (second compound 0.01 µM, first compound 0.00316 µM): 82.5% | viability, T/C (second compound 0.01 µM, first compound 0.01 µM): 77.5% | viability, T/C [11]: 85.9% | viability, T/C [12]: 84.9% | viability, T/C [13]: 95.7% | viability, T/C [14]: 109% | viability, T/C (second compound 0.0316 µM, first compound 0.00316 µM): 58% | viability, T/C (second compound 0.0316 µM, first compound 0.01 µM): 57.3% | viability, T/C [15]: 63.9% | viability, T/C [16]: 64.5% | viability, T/C [17]: 80.8% | viability, T/C [18]: 80.1% | viability, T/C (second compound 0.1 µM, first compound 0.00316 µM): 40% | viability, T/C (second compound 0.1 µM, first compound 0.01 µM): 38.3% | viability, T/C [19]: 47.2% | viability, T/C [20]: 48.2% | viability, T/C [21]: 63% | viability, T/C [22]: 70.2% | viability, T/C (second compound 0.316 µM, first compound 0.00316 µM): 27.6% | viability, T/C (second compound 0.316 µM, first compound 0.01 µM): 24.9% | viability, T/C [23]: 33.1% | viability, T/C [24]: 39.4% | viability, T/C [25]: 46.4% | viability, T/C [26]: 55.6% | viability, T/C (second compound 1 µM, first compound 0.00316 µM): 23.1% | viability, T/C (second compound 1 µM, first compound 0.01 µM): 20.7% | viability, T/C [27]: 26.6% | viability, T/C [28]: 28.5% | viability, T/C [29]: 36.4% | viability, T/C [30]: 50.1%

SMILES: CC1(C)CCC(CN2CCN(c3ccc(C(=O)NS(=O)(=O)c4ccc(NCC5CCOCC5)c([N+](=O)[O-])c4)c(Oc4cnc5[nH]ccc5c4)c3)CC2)=C(c2ccc(Cl)cc2)C1
viability, T/C (compound 0.0316 µM): 90.2% [middle of 4 runs] | viability, T/C (compound 0.1 µM): 87.8% [middle of 4 runs] | viability, T/C (compound 1 µM): 86.9% [middle of 4 runs] | viability, T/C (compound 3.16 µM): 63.4% [middle of 4 runs]
